Reference: patent US20240228488A1 (TAKEDA PHARMACEUTICAL COMPANY LIMITED, priority 2021, published 2024)

Key:
[1] = biological target: human activated kallikrein enzyme (Homo sapiens, UniProt P03952); assay: Plasma kallikrein inhibition, fluorogenic PFR-AMC substrate, 500 pM activated kallikrein format; type: biochemical; conditions: 500 pM activated kallikrein, 300 uM PFR-AMC, 30 min preincubation, 10 min reaction; read-out: Primary Dose Response Assay: Average EC50
Summary of the method: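 Fluorescence (ex 380/em 460 nm) is read after 10 min of 300 uM PFR-AMC turnover by 500 pM enzyme at RT. Compounds sit with enzyme for 30 min beforehand. Buffer is Tris (pH 7.5) with EDTA, NaCl, PEG-400 and Triton X-100; EC50 values are banded.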

plasma kallikrein = biological target: T1, plasma kallikrein (Homo sapiens, UniProt P03952); assay: Neat human plasma assay, FXIIa contact pathway-activated, PFR-AMC substrate; type: biochemical; conditions: citrated human plasma 78% final, 10 nM human FXIIa, 100 μM PFR-AMC; read-out: Human Plasma Assay: IC90
T1 construct: from tissue
Summary of the method: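 Compound inhibition of plasma kallikrein measured as PFR-AMC (100 μM) cleavage rate over 5 min at room temperature in 78% citrated human plasma activated with 10 nM FXIIa (Tris pH 7.5 buffer). IC50/IC90 from 4-parameter fit of rate versus inhibitor concentration.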

human activated kallikrein enzyme, sequence (P03952 391-638 limits assumed): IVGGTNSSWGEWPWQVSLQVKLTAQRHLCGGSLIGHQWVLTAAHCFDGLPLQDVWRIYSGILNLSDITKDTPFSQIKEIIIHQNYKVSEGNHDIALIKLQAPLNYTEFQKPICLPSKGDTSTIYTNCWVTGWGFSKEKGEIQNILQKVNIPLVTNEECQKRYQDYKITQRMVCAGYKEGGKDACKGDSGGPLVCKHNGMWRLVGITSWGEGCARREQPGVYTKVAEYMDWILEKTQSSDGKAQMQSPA
human activated kallikrein enzyme, sequence (P03952 20-390 partner limits assumed): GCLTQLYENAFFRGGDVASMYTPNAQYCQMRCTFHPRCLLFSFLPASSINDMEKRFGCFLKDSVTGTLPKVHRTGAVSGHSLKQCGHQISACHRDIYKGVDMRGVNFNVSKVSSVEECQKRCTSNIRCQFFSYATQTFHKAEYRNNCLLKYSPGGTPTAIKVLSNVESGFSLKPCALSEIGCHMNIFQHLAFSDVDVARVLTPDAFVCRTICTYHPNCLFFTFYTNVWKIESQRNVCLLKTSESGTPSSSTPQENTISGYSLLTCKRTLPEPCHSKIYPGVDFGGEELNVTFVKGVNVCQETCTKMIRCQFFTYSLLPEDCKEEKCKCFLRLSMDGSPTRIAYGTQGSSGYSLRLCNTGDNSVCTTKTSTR
T1 sequence (P03952 391-638 limits assumed): as the sequence (P03952 391-638 limits assumed) above
T1 sequence (P03952 20-390 partner limits assumed): as the sequence (P03952 20-390 partner limits assumed) above

Compound | EC50 [1] | IC90 (plasma kallikrein)
O=C(Nc1ncnc(NCc2cn3cc(C4CC4)ccc3n2)n1)[C@H]1C[C@@H]1c1cccc(Cl)c1 (racemic) [Example 344, (rac-(1S*,2S*))-2-(3-chlorophenyl)-N-(4-(((6-cyclopropylimidazo[1,2-a]pyridin-2-yl)methyl)amino)-1,3,5-triazin-2-yl)cyclopropane-1-carboxamide] | 0.001 to 0.01 µM | 1.5 to 10 µM
Cc1ccnc([C@H]2C[C@@H]2C(=O)Nc2cc(NCc3cn4cc(C5CC5)cc(N5CC(=O)N(C)C5=O)c4n3)nc(CF)n2)n1 (racemic) [Example 353, rac-(1S*,2S*)—N-(6-(((6-cyclopropyl-8-(3-methyl-2,4-dioxoimidazolidin-1-yl)imidazo[1,2-a]pyridin-2-yl)methyl)amino)-2-(fluoromethyl)pyrimidin-4-yl)-2-(4-methylpyrimidin-2-yl)cyclopropane-1-carboxamide] | < 0.001 µM | 0.4 to 1.5 µM
Cc1ccnc([C@H]2C[C@@H]2C(=O)Nc2cc(NCc3cn4cc(C5CC5)cc(N5CC(=O)N(C)C5=O)c4n3)nc(C)n2)n1 (racemic) [Example 366, rac-(1S*,2S*)-N-(6-(((6-cyclopropyl-8-(3-methyl-2,4-dioxoimidazolidin-1-yl)imidazo[1,2-a]pyridin-2-yl)methyl)amino)-2-methylpyrimidin-4-yl)-2-(4-methylpyrimidin-2-yl)cyclopropane-1-carboxamide] | < 0.001 µM | < 0.4 µM
Cc1ccnc([C@H]2C[C@@H]2C(=O)Nc2cc(NCc3cn4cc(C5CC5)cc(-n5[nH]c(=O)n(C)c5=O)c4n3)ncn2)n1 (racemic) [Example 386, rac-(1S*,2S*)-N-(6-(((6-cyclopropyl-8-(4-methyl-3,5-dioxo-1,2,4-triazolidin-1-yl)imidazo[1,2-a]pyridin-2-yl)methyl)amino)pyrimidin-4-yl)-2-(4-methylpyrimidin-2-yl)cyclopropane-1-carboxamide] | 0.001 to 0.01 µM | 1.5 to 10 µM
Cc1ccnc([C@H]2C[C@@H]2C(=O)Nc2cc(N(C)Cc3cn4cc(C5CC5)cc(N5CC(=O)N(C)C5=O)c4n3)ncn2)n1 (racemic) [Example 387, rac-(1S*,2S*)-N-(6-(((6-cyclopropyl-8-(3-methyl-2,4-dioxoimidazolidin-1-yl)imidazo[1,2-a]pyridin-2-yl)methyl)(methyl)amino)pyrimidin-4-yl)-2-(4-methylpyrimidin-2-yl)cyclopropane-1-carboxamide] | < 0.001 µM | < 0.4 µM
Cc1ccnc([C@H]2C[C@@H]2C(=O)Nc2cc(NCc3cn4cc(C5CC5)cc(N5CC(=O)N(CC(F)(F)F)C5=O)c4n3)ncn2)n1 (racemic) [Example 388, rac-(1S*,2S*)-N-(6-(((6-cyclopropyl-8-(2,4-dioxo-3-(2,2,2-trifluoroethyl)imidazolidin-1-yl)imidazo[1,2-a]pyridin-2-yl)methyl)amino)pyrimidin-4-yl)-2-(4-methylpyrimidin-2-yl)cyclopropane-1-carboxamide] | < 0.001 µM | 0.4 to 1.5 µM
Cc1ccnc([C@H]2C[C@@H]2C(=O)Nc2cc(NCc3cn4cc(C5CC5)cc(N5CCCC5=O)c4n3)ncn2)n1 (racemic) [Example 389, rac-(1S*,2S*)-N-(6-(((6-cyclopropyl-8-(2-oxopyrrolidin-1-yl)imidazo[1,2-a]pyridin-2-yl)methyl)amino)pyrimidin-4-yl)-2-(4-methylpyrimidin-2-yl)cyclopropane-1-carboxamide] | < 0.001 µM | 0.4 to 1.5 µM
Cc1ccnc([C@H]2C[C@@H]2C(=O)Nc2cc(NCc3cn4cc(C5CC5)cc(N5CCOC5=O)c4n3)ncn2)n1 (racemic) [Example 390, rac-(1S*,2S*)-N-(6-(((6-cyclopropyl-8-(2-oxooxazolidin-3-yl)imidazo[1,2-a]pyridin-2-yl)methyl)amino)pyrimidin-4-yl)-2-(4-methylpyrimidin-2-yl)cyclopropane-1-carboxamide] | < 0.001 µM | < 0.4 µM
[2H]C([2H])(Nc1cc(NC(=O)[C@H]2C[C@@H]2c2nccc(C)n2)ncn1)c1cn2cc(C3CC3)cc(N3CC(=O)N(C)C3=O)c2n1 (racemic) [Example 391, rac-(1S*,2S*)-N-(6-(((6-cyclopropyl-8-(3-methyl-2,4-dioxoimidazolidin-1-yl)imidazo[1,2-a]pyridin-2-yl)methyl-d2)amino)pyrimidin-4-yl)-2-(4-methylpyrimidin-2-yl)cyclopropane-1-carboxamide] | < 0.001 µM | < 0.4 µM
Cc1ccnc([C@H]2C[C@@H]2C(=O)Nc2cc(NCc3cn4cc(C5CC5)cc(N5CC(=O)NC5=O)c4n3)ncn2)n1 (racemic) [Example 392, rac-(1S*,2S*)-N-(6-(((6-cyclopropyl-8-(2,4-dioxoimidazolidin-1-yl)imidazo[1,2-a]pyridin-2-yl)methyl)amino)pyrimidin-4-yl)-2-(4-methylpyrimidin-2-yl)cyclopropane-1-carboxamide] | < 0.001 µM | 0.4 to 1.5 µM
Cc1ccnc([C@H]2C[C@@H]2C(=O)Nc2cc(NCc3cn4cc(C5CC5)cc(N5CC(=O)N(C)C5=O)c4n3)ncn2)c1 (racemic) [Example 393, rac-(1S*,2S*)-N-(6-(((6-cyclopropyl-8-(3-methyl-2,4-dioxoimidazolidin-1-yl)imidazo[1,2-a]pyridin-2-yl)methyl)amino)pyrimidin-4-yl)-2-(4-methylpyridin-2-yl)cyclopropane-1-carboxamide] | < 0.001 µM | 0.4 to 1.5 µM
Cc1ccnc([C@H]2C[C@@H]2C(=O)Nc2cc(NCc3cn4cc(C5CC5)cc(N5CC(=O)N(C)C5=O)c4n3)nc(C(F)F)n2)n1 (racemic) [Example 411, rac-(1S*,2S*)-N-(6-(((6-cyclopropyl-8-(3-methyl-2,4-dioxoimidazolidin-1-yl)imidazo[1,2-a]pyridin-2-yl)methyl)amino)-2-(difluoromethyl)pyrimidin-4-yl)-2-(4-methylpyrimidin-2-yl)cyclopropane-1-carboxamide] | < 0.001 µM | < 0.4 µM
Cc1ccnc([C@H]2C[C@@H]2C(=O)Nc2ncnc(NCc3cn4cc(C5CC5)cc(N5CC(=O)N(C)C5=O)c4n3)c2F)n1 (racemic) [Example 412, rac-(1S*,2S*)-N-(6-(((6-cyclopropyl-8-(3-methyl-2,4-dioxoimidazolidin-1-yl)imidazo[1,2-a]pyridin-2-yl)methyl)amino)-5-fluoropyrimidin-4-yl)-2-(4-methylpyrimidin-2-yl)cyclopropane-1-carboxamide] | 0.001 to 0.01 µM | 0.4 to 1.5 µM
Cc1ccnc([C@H]2C[C@@H]2C(=O)Nc2cc(NCc3cn4cc(C5CC5)ccc4n3)ccn2)n1 (racemic) [Example 414, rac-(1S*,2S*)-N-(4-(((6-cyclopropylimidazo[1,2-a]pyridin-2-yl)methyl)amino)pyridin-2-yl)-2-(4-methylpyrimidin-2-yl)cyclopropane-1-carboxamide] | < 0.001 µM | 10 to 48 µM
Cc1ccnc([C@H]2C[C@@H]2C(=O)Nc2cc(N[C@H](C)c3cn4cc(C5CC5)cc(N5C[C@@H]6C[C@@H]6C5=O)c4n3)ncn2)n1 (racemic) [Example 443, (1S,2S)—N-(6-(((R)-1-(6-cyclopropyl-8-((1R*,5S*)-2-oxo-3-azabicyclo[3.1.0]hexan-3-yl)imidazo[1,2-a]pyridin-2-yl)ethyl)amino)pyrimidin-4-yl)-2-(4-methylpyrimidin-2-yl)cyclopropane-1-carboxamide] | < 0.001 µM | < 0.4 µM
